Assay results: patent US6514989B1, “Aromatic and heteroaromatic substituted 1,2,4-triazolo pyridine derivatives” (Hoffmann-La Roche Inc., priority 2001, dated 2003)

Legend:
[1] = biological target: T1, human adenosine A1 receptor (Homo sapiens, UniProt P30542); assay: Human adenosine A1 receptor radioligand binding assay ([3H]-DPCPX, SPA, CHO cell membranes); details: recombinant human A1 receptor expressed in CHO cells; [3H]-DPCPX 0.6 nM; Ki from IC50 by Cheng-Prussoff equation; read-out: hA1 Ki
T1 construct: expressed in transfected cells; host or cells: CHO cells, semliki forest virus expression system; membrane preparation
T1 sequence (P30542 1-326): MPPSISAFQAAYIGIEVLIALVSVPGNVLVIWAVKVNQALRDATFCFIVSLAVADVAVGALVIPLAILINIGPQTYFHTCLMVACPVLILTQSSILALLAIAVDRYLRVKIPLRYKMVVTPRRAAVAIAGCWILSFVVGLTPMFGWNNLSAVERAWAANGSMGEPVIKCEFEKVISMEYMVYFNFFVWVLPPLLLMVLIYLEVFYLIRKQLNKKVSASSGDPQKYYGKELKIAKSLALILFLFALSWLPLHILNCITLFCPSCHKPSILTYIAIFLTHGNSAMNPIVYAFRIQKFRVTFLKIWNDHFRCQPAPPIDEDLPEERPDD
Protocol: Human Adenosine A^1 Receptor
The gene encoding human adenosinie A1 receptor was recombinantly introduced and expressed in chinese hamster ovary (CHO) cells using the semliki forest virus expression system. Cells were harvested, washed twice by centrifugation, homogenized and again washed by centrifugation. The final washed membrane pellet was suspended in a Tris (50 mM) buffer containing 120 mM NaCl, 5 mM KCl, 2 mM CaCl2 and 10 mM MgCl2 (pH 7.4) (buffer A). The [^3H]-DPCPX (([propyl-3H]8-cyclopentyl-1,3-dipropyxanthine); 0.6 nM) binding assay was carried out in 96-well plates in the presence of 2.5 μg of membrane protein, 0.5 mg of Ysi-poly-1-lysine SPA beads and 0.1 U adenosine deaminase in a final volume of 200 μl of buffer A. Non-specific binding was defined using xanthine amine congener (XAC; 2 μM). Compounds were tested at 10 concentrations from 10 μM-0.3 nM. All assays were conducted in duplicate and repeated at least two times. Assay plates were incubated for 1 hour at room temperature before centrifugation and then bound ligand determined using a Packard Topcount scintillation counter. IC50 values were calculated using a non-linear curve fitting program and Ki values calculated using the Cheng-Prussoff equation.
(§1) In accordance with the invention, it has been shown that compounds of formula I have a high affinity toward the A2A receptor. In Table I below specific values of prepared compounds are described, Values of KiHA2A and KiHA1 are shown in Table I for compounds of formula 1. A low Ki value is indicative of a particular compound's high affinity toward a particular receptor and conversely a higher Ki value is indicative of a lower affinity for that compound toward a particular receptor. […] Generally speaking, compounds that have a higher HA1/HA2A ratio are able to give a substantially complete blockade of the HA2A receptor without substantially affecting the A1 receptor.

[2] = biological target: T2, human adenosine A2a receptor (Homo sapiens, UniProt P29274); assay: Human adenosine A2a receptor radioligand binding assay ([125I]-AB-MECA, CHO cell membranes); details: for Selectivity A1/A2a: ratio obtained by dividing KiHA1 by KiHA2A; for Ki: recombinant human A2a receptor expressed in CHO cells, Ki from IC50 by Cheng-Prussoff equation, read-out: hA2a Ki
T2 construct: expressed in transfected cells; host or cells: CHO cells, semliki forest virus expression system; membrane preparation
Protocol: Human Adenosine A2a Receptor
The gene encoding human adenosine A2a receptor was recombinantly introduced and expressed in chinese hamster ovary (CHO) cells using the semliki forest virus expression system. Cells were harvested, washed twice by centrifugation, homogenized and again washed by centrifugation. The final washed membrane pellet was suspended in a Tris (50 mM) buffer containing 120 mM NaCl, 5 mM KCl, 2 mM CaCl2 and 10 mM MgCl2 (pH 7.4) (buffer A). The [^125I]-AB-MECA ([N(6)-(4-amino-3-iodobenzyl)-5′-N-methylcarbamoyl-adenosine]; 0.05 nM) binding assay was carried out in 96-well a plates in the presence of 20 μg of membrane protein and 0.1 U adenosine deaminase in a final volume of […] of buffer A. Non-specific binding was defined using xanthine amine congener (XAC; 2 μM). Compounds were tested at 10 concentrations from 10 μM-0.3 nM. All assays were conducted in duplicate and repeated at least two times. Assay plates were incubated for 1 hour at room temperature before filtration through Whatman Unifilter GF/C 96-well filter plates (preincubated with 0.3% polyethyleneimine). Filters were washed 3 times with 0.3 ml of cold (4° C.) Tris (50 mM)—NaC […]
[…] 1 (120 mM) buffer (pH 7.4). Microscint 40 scintillation fluid (50 μl) was added to each well and the wells sealed. After gentle shaking for 20 min, plates were counted on a Packard Topcount scintillation counter. IC50 values were calculated using a non-linear curve fitting program and Ki values calculated using the Cheng-Prussoff equation.
as §1

T2 sequence (P29274 whole entry): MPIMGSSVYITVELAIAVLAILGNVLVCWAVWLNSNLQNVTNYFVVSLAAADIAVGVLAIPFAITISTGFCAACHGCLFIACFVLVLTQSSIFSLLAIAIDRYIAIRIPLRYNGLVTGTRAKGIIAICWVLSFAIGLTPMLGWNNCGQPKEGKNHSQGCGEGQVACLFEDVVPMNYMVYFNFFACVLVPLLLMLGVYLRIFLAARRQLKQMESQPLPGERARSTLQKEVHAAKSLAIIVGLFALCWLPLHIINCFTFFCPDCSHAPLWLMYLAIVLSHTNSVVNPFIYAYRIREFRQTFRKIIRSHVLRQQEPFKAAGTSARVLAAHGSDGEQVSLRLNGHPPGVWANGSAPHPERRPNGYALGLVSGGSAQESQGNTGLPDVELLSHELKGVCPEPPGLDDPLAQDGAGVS

Row | Molecule | Ki [1] [nM] | Selectivity A1/A2a [2] | Ki [2] [nM]
1 | COc1ccc(-c2ccccc2)n2nc(NC(=O)c3cccc(Br)c3)nc12 [Example 8, 3-Bromo-N-(8-methoxy-5-phenyl-[1,2,4]triazolo[1,5-a]pyridin-2-yl)-benzamide] | 2880 | 21.1 | 136
2 | COc1ccc(-c2cccc(NC(C)=O)c2)n2nc(NC(=O)c3ccc(C)s3)nc12 [Example 41, 5-Methyl-thiophene-2-carboxylic acid [5-(3-acetylamino-phenyl)-8-methoxy-[1,2,4]triazolo[1,5-a]pyridin-2-yl]-amide] |  |  | 254
3 | CCOc1cccc(-c2ccc(OC)c3nc(NC(=O)c4ccc(C)s4)nn23)c1 [Example 30, 5-Methyl-thiophene-2-carboxylic acid [5-(3-ethoxy-phenyl)-8-methoxy-[1,2,4]triazolo[1,5-a]pyridin-2-yl]-amide] | 1360 | 18.6 | 72.9
4 | COc1ccc(-c2cccc(C(F)(F)F)c2)n2nc(NC(=O)c3ccc(C)s3)nc12 [Example 40, 5-Methyl-thiophene-2-carboxylic acid [8-methoxy-5-(3-trifluoromethyl-phenyl)-[1,2,4]triazolo[1,5-a]pyridin-2-yl]-amide] |  |  | 547
5 | COc1ccc(-c2ccc(OC)c3nc(NC(=O)c4ccc(F)cc4)nn23)cc1 [Example 49, 4-Fluoro-N-[8-methoxy-5-(4-methoxy-phenyl)-[1,2,4]triazolo[1,5-a]pyridin-2-yl]-benzamide] |  |  | 346
6 | COc1ccc(-c2cccs2)n2nc(NC(=O)c3ccccc3Br)nc12 [Example 17, 2-Bromo-N-(8-methoxy-5-thiophen-2-yl-[1,2,4]triazolo[1,5-a]pyridin-2-yl)-benzamide] | 2490 | 12.0 | 208
7 | COc1ccc(-c2ccccc2C)n2nc(NC(=O)c3ccc(C)s3)nc12 [Example 37, 5-Methyl-thiophene-2-carboxylic acid (8-methoxy-5-o-tolyl-[1,2,4]triazolo[1,5-a]pyridin-2-yl)-amide] |  |  | 938
8 | COc1ccc(-c2ccc(OC)c3nc(NC(=O)c4ccc(C)s4)nn23)cc1 [Example 28, 5-Methyl-thiophene-2-carboxylic acid [8-methoxy-5-(4-methoxy-phenyl) [1,2,4]triazolo[1,5-a]pyridin-2-yl]-amide] | 5210 | 36.5 | 143
9 | COc1ccc(-c2ccc3[nH]ccc3c2)n2nc(NC(=O)c3ccc(C)s3)nc12 [Example 45, 5-Methyl-thiophene-2-carboxylic acid [5-(1H-indol-5-yl)-8-methoxy-[1,2,4]triazolo[1,5-a]pyridin-2-yl]-amide] |  |  | 852
10 | CCc1ccc(C(=O)Nc2nc3c(OC)ccc(-c4ccccc4)n3n2)cc1 [Example 10, 4-Ethyl-N-(8-methoxy-5-phenyl-[1,2,4]triazolo[1,5-a]pyridin-2-yl)-benzamide] | 2000 | 11.5 | 173
11 | COc1ccc(-c2ccccc2)n2nc(NC(=O)c3ccccc3F)nc12 [Example 21, 2-Fluoro-N-(8-methoxy-5-phenyl-[1,2,4]triazolo[1,5-a]pyridin-2-yl)-benzamide] |  |  | 384
12 | COc1ccc(-c2ccccc2F)n2nc(NC(=O)c3ccc(F)cc3)nc12 [Example 32, 4-Fluoro-N-[5-(2-fluorophenyl)-8-methoxy-[1,2,4]triazolo[1,5-a]pyridin-2-yl]-benzamide] | 5640 | 24.6 | 229
13 | COc1ccc(-c2cccs2)n2nc(NC(=O)c3ccccc3)nc12 [Example 12, N-(8-Methoxy-5-thiophen-2-yl-[1,2,4]triazolo[1,5-a]pyridin-2-yl)-benzamide] | 2150 | 19.3 | 112
14 | COc1ccc(-c2ccc(SC)cc2)n2nc(NC(=O)c3ccc(C)s3)nc12 [Example 42, 5-Methyl-thiophene-2-carboxylic acid [8-methoxy-5-(4-methylsulfanyl-phenyl)-[1,2,4]triazolo[1,5-a]pyridin-2-yl]-amide] |  |  | 287
15 | COc1ccc(-c2cccc(Cl)c2)n2nc(NC(=O)c3ccc(F)cc3)nc12 [Example 47, N-[5-(3-Chloro-phenyl)-8-methoxy-[1,2,4]triazolo[1,5-a]pyridin-2-yl]-4-fluoro-benzamide] |  |  | 269
16 | CCOC(=O)c1cccc(-c2ccc(OC)c3nc(NC(=O)c4ccc(F)cc4)nn23)c1 [Example 51, 3-[2-(4-Fluoro-benzoylamino)-8-methoxy-[1,2,4]triazolo[1,5-a]pyridin-5-yl]-benzoic acid ethyl ester] |  |  | 480
17 | 5-Methyl-thiophene-2-carboxylic acid[8-methoxy-5-(4-vinyl-phenyl)-[1,2,4]triazolo[1,5-a]pyridin-2-yl]-amide [Example 44] |  |  | 246
18 | COc1ccc(-c2ccc(SC)cc2)n2nc(NC(=O)c3ccc(F)cc3)nc12 [Example 50, 4-Fluoro-N-[8-methoxy-5-(4-methylsulfanyl-phenyl)-[1,2,4]triazolo[1,5-a]pyridin-2-yl]-benzamide] |  |  | 855
19 | COc1ccc(-c2ccc(Cl)cc2)n2nc(NC(=O)c3ccc(F)cc3)nc12 [Example 48, N-[5-(4-Chloro-phenyl)-8-methoxy-[1,2,4]triazolo[1,5-a]pyridin-2-yl]-4-fluoro-benzamide] |  |  | 624
20 | COc1ccc(-c2ccccc2Cl)n2nc(NC(=O)c3ccc(C)s3)nc12 [Example 36, 5-Methyl-thiophene-2-carboxylic acid [5-(2-chloro-phenyl)-8-methoxy-[1,2,4]triazolo[1,5-a]pyridin-2-yl]-amide] |  |  | 527
21 | COc1ccc(-c2ccccc2)n2nc(NC(=O)c3ccccc3Br)nc12 [Example 22, 2-Bromo-N-(8-methoxy-5-phenyl-[1,2,4]triazolo[1,5-a]pyridin-2-yl)-benzamide] |  |  | 266
22 | COc1ccc(-c2ccc(C)cc2)n2nc(NC(=O)c3ccc(C)s3)nc12 [Example 39, 5-Methyl-thiophene-2-carboxylic acid (8-methoxy-5-p-tolyl-[1,2,4]triazolo[1,5-a]pyridin-2-yl)-amide] |  |  | 451
23 | CCOC(=O)c1cccc(-c2ccc(OC)c3nc(NC(=O)c4ccc(C)s4)nn23)c1 [Example 46, 3-{8-Methoxy-2-[(5-methyl-thiophene-2-carbonyl)-amino]-[1,2,4]triazolo[1,5-a]pyridin-5-yl}-benzoic acid ethyl ester] |  |  | 332
24 | COc1ccc(-c2cccc(C)c2)n2nc(NC(=O)c3ccc(C)s3)nc12 [Example 38, 5-Methyl-thiophene-2-carboxylic acid (8-methoxy-5-m-tolyl [1,2,4]triazolo[1,5-a]pyridin-2-yl)-amide] |  |  | 277
25 | COc1ccc(-c2cccc(C(C)=O)c2)n2nc(NC(=O)c3ccc(C)s3)nc12 [Example 43, 5-Methyl-thiophene-2-carboxylic acid [5-(3-acetyl-phenyl)-8-methoxy-[1,2,4]triazolo[1,5-a]pyridin-2-yl]-amide] |  |  | 618
